Results on 17 compounds are retold here after PubChem BioAssay (NCI).

Some test systems named below: A498 renal; HCC-2998 colon; HS 578T breast; HT29 colon; MDA-N; NCI-H226 lung; NCI-H23 lung; OVCAR-4 ovarian; SN12C renal; SNB-19 CNS; SNB-75 CNS; T-47D breast.
Common to all, as to test: inhibition of tumour cell growth, NCI panel, 48 h

Molecules are shown by their SMILES.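 The compound was tested at five concentrations on cells cultured in 96-well plates, with a 48-hour exposure period. At the TGI there is no net growth.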

Regarding `CN(C)c1ccc(/C=C/C=C(/C#N)c2ccccc2)cc1`, the TGI in the test on A498 renal is 98.5 µM; with HCC-2998 colon it was more than 85.3 µM; in the test with HS 578T breast it was 69.2 µM; with HT29 colon it was 40.6 µM; with MDA-N, 5.28 µM; in the test with NCI-H226 lung, more than 100 µM. The TGI in the test on NCI-H23 lung was 97.6 µM; in the test on OVCAR-4 ovarian, more than 65.8 µM; in the test with SN12C renal, more than 100 µM; in the test on SNB-19 CNS, more than 88.1 µM; in the test on SNB-75 CNS it was 76 µM; with T-47D breast, more than 100 µM.
On to `CCC(CCCC[C@@H]1CC[C@H]2CC(=O)C[C@@H]12)OC` (some centres undefined), for which the TGI in the test on A498 renal, in the test with HCC-2998 colon, with HS 578T breast, in the test on HT29 colon, in the test with MDA-N and in the test on NCI-H226 lung was more than 100 µM each time. Besides, the TGI in the test on NCI-H23 lung, with OVCAR-4 ovarian, in the test on SN12C renal, in the test with SNB-19 CNS, in the test on SNB-75 CNS and with T-47D breast was more than 100 µM each time.
For the compound `COC(=O)/N=[N+](\[O-])C(c1ccc(OC)cc1)C1CCCCC1` (centres undefined), the TGI in the test on A498 renal worked out at 25.3 µM; with HCC-2998 colon, 16.1 µM; in the test on HS 578T breast, 40.7 µM; in the test with HT29 colon, 5.62 µM; with MDA-N, 12 µM; in the test on NCI-H226 lung, 26.9 µM. The TGI in the test on NCI-H23 lung was 22.6 µM; in the test on OVCAR-4 ovarian, more than 100 µM; in the test on SN12C renal, 11.3 µM; in the test with SNB-19 CNS it was more than 54.2 µM; with SNB-75 CNS, 20.8 µM; in the test on T-47D breast, 40.3 µM.
For `Cc1ccc2c(n1)C(=O)c1ccccc1C2=O`, the TGI in the test with A498 renal is more than 88.4 µM; with HCC-2998 colon it was more than 92.2 µM; in the test with HS 578T breast it was more than 100 µM; in the test on HT29 colon, more than 87.9 µM; in the test on MDA-N, more than 59.9 µM; in the test on NCI-H226 lung it was more than 100 µM. Also, the TGI in the test with NCI-H23 lung is 38.1 µM; in the test with OVCAR-4 ovarian it was 55.4 µM; with SN12C renal, more than 88.2 µM; in the test on SNB-19 CNS, more than 87.9 µM; with SNB-75 CNS, 92.4 µM; in the test on T-47D breast, more than 85 µM.
With `CCCCOC(=O)C(O)Cc1ccoc1` (centres undefined), the TGI in the test on A498 renal, in the test with HCC-2998 colon, in the test on HS 578T breast, in the test with HT29 colon, in the test with MDA-N and in the test on NCI-H226 lung was more than 100 µM in each case. For the same compound, the TGI in the test with NCI-H23 lung, in the test on OVCAR-4 ovarian, with SN12C renal, in the test with SNB-19 CNS, with SNB-75 CNS and in the test with T-47D breast was more than 100 µM in each case.
For `CN(CCc1ccc(N)cc1)[C@H]1CCCC[C@H]1N1CCCC1`, the TGI in the test on A498 renal, in the test on HCC-2998 colon, in the test on HS 578T breast, in the test with HT29 colon, in the test on MDA-N and in the test on NCI-H226 lung was more than 100 µM in each case. In addition, the TGI in the test with NCI-H23 lung, with OVCAR-4 ovarian, in the test with SN12C renal, with SNB-19 CNS, in the test with SNB-75 CNS and with T-47D breast was more than 100 µM each time.
With `OC1COC(n2c3ccc(Br)cc3c3ccc4c5ccccc5[nH]c4c32)C(O)C1O` (centres undefined), the TGI in the test with A498 renal stood at 13.9 µM; in the test with HCC-2998 colon, 11.4 µM; in the test with HS 578T breast, 18.1 µM; in the test with HT29 colon, 11.4 µM; in the test on MDA-N, 15.2 µM; with NCI-H226 lung, 30.3 µM. The TGI is 12 µM in the test with NCI-H23 lung; more than 46.2 µM in the test on OVCAR-4 ovarian; 16 µM with SN12C renal; 28.2 µM in the test with SNB-19 CNS; 14.3 µM in the test with SNB-75 CNS; 20.1 µM in the test with T-47D breast.
As for `CCOC(=O)CCC(NC(=O)c1ccc(N2CCN(c3c(C)nc(N)nc3N)CC2)cc1)C(=O)OCC` (centres undefined), the TGI with A498 renal is more than 100 µM; in the test with HCC-2998 colon, more than 100 µM; in the test with HS 578T breast, more than 100 µM; in the test with HT29 colon, more than 100 µM; in the test with MDA-N it was more than 54.7 µM; in the test on NCI-H226 lung, more than 100 µM. Moreover, the TGI in the test with NCI-H23 lung is more than 100 µM; with OVCAR-4 ovarian, more than 100 µM; in the test with SN12C renal, more than 100 µM; in the test with SNB-19 CNS, more than 24.7 µM; in the test on SNB-75 CNS, more than 100 µM; in the test on T-47D breast, more than 100 µM.
Consider `COC(=O)c1c(C)cccc1/C=C1\Cc2cc(C)cc(C)c2C1=O`, for which the TGI in the test with A498 renal was more than 100 µM; in the test with HCC-2998 colon, more than 100 µM; with HS 578T breast, 69.7 µM; with HT29 colon it was more than 100 µM; with MDA-N, more than 100 µM; with NCI-H226 lung it was more than 100 µM. Besides, the TGI in the test with NCI-H23 lung was more than 100 µM; with OVCAR-4 ovarian it was 51.4 µM; in the test on SN12C renal, more than 100 µM; in the test with SNB-19 CNS, more than 100 µM; in the test with SNB-75 CNS, 38.4 µM; with T-47D breast, more than 100 µM.
Regarding `CCC(=O)O[C@H]1CC[C@H]2[C@@H]3CCC4=C/C(=N/NC(=O)c5cccc6c(=O)c7ccccc7[nH]c56)CC[C@]4(C)[C@H]3CC[C@]12C`, the TGI in the test on A498 renal, with HCC-2998 colon, with HS 578T breast, in the test with HT29 colon, with MDA-N and with NCI-H226 lung was more than 25 µM each time. Besides, the TGI in the test on NCI-H23 lung, in the test on OVCAR-4 ovarian, with SN12C renal, in the test on SNB-19 CNS, with SNB-75 CNS and with T-47D breast was more than 25 µM throughout.
Consider `COCCOCCOC1=C(Cl)C(=O)c2c(O)ccc(O)c2C1=O`, for which the TGI in the test on A498 renal was 13.9 µM; with HCC-2998 colon, 34 µM; in the test on HS 578T breast it was 7.9 µM; with HT29 colon it was 8.73 µM; in the test on MDA-N, 9.63 µM; in the test on NCI-H226 lung, 35.4 µM. The TGI amounted to 6.03 µM with NCI-H23 lung; 4.36 µM with OVCAR-4 ovarian; 3.7 µM in the test on SN12C renal; 27.1 µM in the test on SNB-19 CNS; 31.5 µM in the test on SNB-75 CNS; 6.64 µM with T-47D breast.
As to `Nc1nc(Cl)cc(Nc2cc(Cl)cc(Cl)c2)n1`, the TGI is 44.3 µM with A498 renal; 32.8 µM in the test with HCC-2998 colon; 41.1 µM with HS 578T breast; 30.6 µM with HT29 colon; 48.8 µM with MDA-N; 40.8 µM with NCI-H226 lung. The TGI in the test on NCI-H23 lung came to 48.6 µM; in the test on OVCAR-4 ovarian, 46.6 µM; in the test on SN12C renal, 40.7 µM; in the test with SNB-19 CNS it was 47.5 µM; with SNB-75 CNS it was 39.5 µM; with T-47D breast, 98.9 µM.
Take `Clc1ccc(C2NN=C3c4ccccc4OCC32)cc1` (centres undefined): the TGI in the test on A498 renal is 92.6 µM; with HCC-2998 colon, 13.5 µM; with HS 578T breast, 14.6 µM; in the test on HT29 colon, 12.2 µM; in the test on MDA-N, 2.56 µM; in the test on NCI-H226 lung, 14.2 µM. For the same compound, the TGI was 51 µM in the test with NCI-H23 lung; more than 73.1 µM with OVCAR-4 ovarian; 22.1 µM with SN12C renal; more than 100 µM with SNB-19 CNS; more than 100 µM in the test on SNB-75 CNS; 54.3 µM in the test with T-47D breast.
Consider `COc1ccc(-c2cc(-c3cc(OC)c(OC)c(OC)c3)cc(-c3cc4ccccc4oc3=O)n2)cc1`, for which the TGI in the test on A498 renal is 17.6 µM; in the test with HCC-2998 colon it was 80.5 µM; with HS 578T breast it was 7.14 µM; with HT29 colon it was more than 100 µM; in the test with MDA-N, 68 µM; in the test with NCI-H226 lung, 22.2 µM. Further, the TGI is 29.8 µM in the test with NCI-H23 lung; 21.4 µM with OVCAR-4 ovarian; 49.7 µM with SN12C renal; 37.7 µM in the test on SNB-19 CNS; 9.61 µM with SNB-75 CNS; 26 µM with T-47D breast.
Take `C1=C\CCCCN2C[C@H]3CCCC/C=C\CCCCN4CC[C@@H]([C@H](CCCCCC/1)C4)[C@H](C3)C2`: the TGI in the test on A498 renal was determined as 17.4 µM; in the test with HCC-2998 colon it was 2.01 µM; with HS 578T breast, 4.34 µM; in the test on HT29 colon, 5.1 µM; in the test with MDA-N it was 3.26 µM; in the test with NCI-H226 lung it was 37 µM. Moreover, the TGI in the test on NCI-H23 lung was determined as 18.9 µM; in the test with OVCAR-4 ovarian, 6.11 µM; in the test on SN12C renal it was 22.9 µM; in the test with SNB-19 CNS, 5.3 µM; with SNB-75 CNS, 5.46 µM; in the test on T-47D breast it was 4.6 µM.
For `Brc1ccc2[nH]cc(-c3nc(-c4c[nH]c5ccccc45)cs3)c2c1`, the TGI with A498 renal was 8.47 µM; in the test with HCC-2998 colon, 4.17 µM; with HS 578T breast, more than 47.9 µM; in the test with HT29 colon, 3.56 µM; in the test with MDA-N, 9.35 µM; in the test with NCI-H226 lung, 8.13 µM. For the same compound, the TGI with NCI-H23 lung stood at 8.84 µM; with OVCAR-4 ovarian it was 23.1 µM; in the test with SN12C renal, 13.9 µM; in the test with SNB-19 CNS, 12.2 µM; with SNB-75 CNS it was 25.1 µM; with T-47D breast, 31.7 µM.
As to `Cc1ccc(Nc2cc(=O)[nH]c(=S)[nH]2)cc1`, the TGI in the test on A498 renal, in the test with HCC-2998 colon, in the test with HS 578T breast, with HT29 colon, in the test on MDA-N and in the test on NCI-H226 lung was more than 100 µM in each case. Moreover, the TGI in the test on NCI-H23 lung, in the test with OVCAR-4 ovarian, in the test with SN12C renal, with SNB-19 CNS, in the test with SNB-75 CNS and in the test on T-47D breast was more than 100 µM in each case.
